In series [1] the target is T1, Metabotropic glutamate receptor 5 (Homo sapiens, UniProt P41594). The experiment in a line: Antagonist activity at human mGluR5 expressed in human embryonic kidney cells assessed as inhibition of L-glutamate-induced calcium release at 10 uM by calcium-5 reagent-based fluorescence assay relative to control. The format is functional, cell-based.
Target sequence in this assay (P41594 21-1212 limits assumed): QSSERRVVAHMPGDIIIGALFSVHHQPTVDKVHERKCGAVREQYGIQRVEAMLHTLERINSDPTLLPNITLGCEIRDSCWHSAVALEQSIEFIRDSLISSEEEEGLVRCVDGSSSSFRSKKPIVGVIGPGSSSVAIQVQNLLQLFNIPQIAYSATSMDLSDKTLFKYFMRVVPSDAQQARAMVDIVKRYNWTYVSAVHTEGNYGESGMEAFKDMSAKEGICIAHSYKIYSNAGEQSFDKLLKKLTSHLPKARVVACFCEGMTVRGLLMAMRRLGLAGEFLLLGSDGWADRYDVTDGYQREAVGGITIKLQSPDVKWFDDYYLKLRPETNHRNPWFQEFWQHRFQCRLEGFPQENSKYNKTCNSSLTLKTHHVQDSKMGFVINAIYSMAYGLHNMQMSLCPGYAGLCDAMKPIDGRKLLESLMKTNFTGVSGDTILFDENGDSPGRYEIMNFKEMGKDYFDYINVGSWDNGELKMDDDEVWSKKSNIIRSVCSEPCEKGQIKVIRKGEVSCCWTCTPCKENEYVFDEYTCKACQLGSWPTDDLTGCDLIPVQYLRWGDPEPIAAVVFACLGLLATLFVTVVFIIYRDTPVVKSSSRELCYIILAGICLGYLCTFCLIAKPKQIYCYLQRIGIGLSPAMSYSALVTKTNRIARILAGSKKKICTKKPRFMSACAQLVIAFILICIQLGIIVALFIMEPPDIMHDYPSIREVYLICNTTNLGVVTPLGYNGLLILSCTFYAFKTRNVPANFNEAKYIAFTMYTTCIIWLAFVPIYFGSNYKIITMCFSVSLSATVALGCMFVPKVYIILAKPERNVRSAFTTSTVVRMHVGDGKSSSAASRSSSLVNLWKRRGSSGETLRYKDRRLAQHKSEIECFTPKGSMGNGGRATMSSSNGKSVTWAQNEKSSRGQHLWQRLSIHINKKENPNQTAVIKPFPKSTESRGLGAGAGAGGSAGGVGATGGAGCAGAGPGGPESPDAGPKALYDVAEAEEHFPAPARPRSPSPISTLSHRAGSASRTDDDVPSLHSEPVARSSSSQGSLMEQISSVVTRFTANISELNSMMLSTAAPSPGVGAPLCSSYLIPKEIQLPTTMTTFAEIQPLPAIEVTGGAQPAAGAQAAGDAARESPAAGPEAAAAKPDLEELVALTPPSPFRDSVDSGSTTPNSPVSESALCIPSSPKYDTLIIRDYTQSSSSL
Series [2] has as its target T2, Metabotropic glutamate receptor 1 (Homo sapiens, UniProt Q13255). The experiment in a line: Antagonist activity at human mGluR1 expressed in human Chem-3 cells assessed as inhibition of L-glutamate-induced calcium release at 10 uM by calcium-5 reagent-based fluorescence assay relative to control. Format: functional, cell-based.
Target sequence in this assay (Q13255 19-1194 limits assumed): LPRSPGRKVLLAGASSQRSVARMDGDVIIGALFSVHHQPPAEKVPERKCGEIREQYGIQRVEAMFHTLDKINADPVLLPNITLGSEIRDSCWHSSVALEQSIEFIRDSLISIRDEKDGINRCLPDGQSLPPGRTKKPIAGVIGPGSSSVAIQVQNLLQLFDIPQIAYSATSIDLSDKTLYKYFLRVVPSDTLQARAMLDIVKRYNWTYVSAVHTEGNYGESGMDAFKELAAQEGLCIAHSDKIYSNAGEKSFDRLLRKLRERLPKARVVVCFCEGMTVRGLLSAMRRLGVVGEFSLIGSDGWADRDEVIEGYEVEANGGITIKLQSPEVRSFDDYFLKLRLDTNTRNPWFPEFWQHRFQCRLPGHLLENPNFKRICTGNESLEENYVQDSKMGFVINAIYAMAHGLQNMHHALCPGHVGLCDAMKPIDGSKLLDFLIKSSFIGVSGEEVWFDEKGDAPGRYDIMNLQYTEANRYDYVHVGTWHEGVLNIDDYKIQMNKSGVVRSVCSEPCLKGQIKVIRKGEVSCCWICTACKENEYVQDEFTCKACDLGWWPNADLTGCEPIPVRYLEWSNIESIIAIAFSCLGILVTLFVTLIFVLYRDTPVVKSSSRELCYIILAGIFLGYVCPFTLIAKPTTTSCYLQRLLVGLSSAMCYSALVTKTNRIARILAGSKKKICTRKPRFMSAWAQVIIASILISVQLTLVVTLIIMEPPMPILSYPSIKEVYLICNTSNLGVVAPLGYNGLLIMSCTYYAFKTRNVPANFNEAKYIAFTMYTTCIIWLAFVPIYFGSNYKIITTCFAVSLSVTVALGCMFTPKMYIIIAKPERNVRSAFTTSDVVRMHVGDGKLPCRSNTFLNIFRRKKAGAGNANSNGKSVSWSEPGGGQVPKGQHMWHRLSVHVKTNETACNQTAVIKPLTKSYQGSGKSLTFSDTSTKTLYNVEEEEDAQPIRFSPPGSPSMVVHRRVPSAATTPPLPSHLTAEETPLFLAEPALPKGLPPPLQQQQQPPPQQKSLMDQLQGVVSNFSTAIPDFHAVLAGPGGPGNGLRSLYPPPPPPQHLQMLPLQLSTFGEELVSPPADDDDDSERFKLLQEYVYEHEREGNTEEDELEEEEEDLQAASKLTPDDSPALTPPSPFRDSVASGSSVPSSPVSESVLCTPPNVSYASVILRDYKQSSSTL
Series [3] deals with T2, Metabotropic glutamate receptor 1. The experiment in a line: Antagonist activity at human mGluR1 expressed in human Chem-3 cells assessed as inhibition of L-glutamate-induced calcium release by calcium-5 reagent-based fluorescence assay. The format is functional, cell-based.
Target sequence in this assay (Q13255 whole entry): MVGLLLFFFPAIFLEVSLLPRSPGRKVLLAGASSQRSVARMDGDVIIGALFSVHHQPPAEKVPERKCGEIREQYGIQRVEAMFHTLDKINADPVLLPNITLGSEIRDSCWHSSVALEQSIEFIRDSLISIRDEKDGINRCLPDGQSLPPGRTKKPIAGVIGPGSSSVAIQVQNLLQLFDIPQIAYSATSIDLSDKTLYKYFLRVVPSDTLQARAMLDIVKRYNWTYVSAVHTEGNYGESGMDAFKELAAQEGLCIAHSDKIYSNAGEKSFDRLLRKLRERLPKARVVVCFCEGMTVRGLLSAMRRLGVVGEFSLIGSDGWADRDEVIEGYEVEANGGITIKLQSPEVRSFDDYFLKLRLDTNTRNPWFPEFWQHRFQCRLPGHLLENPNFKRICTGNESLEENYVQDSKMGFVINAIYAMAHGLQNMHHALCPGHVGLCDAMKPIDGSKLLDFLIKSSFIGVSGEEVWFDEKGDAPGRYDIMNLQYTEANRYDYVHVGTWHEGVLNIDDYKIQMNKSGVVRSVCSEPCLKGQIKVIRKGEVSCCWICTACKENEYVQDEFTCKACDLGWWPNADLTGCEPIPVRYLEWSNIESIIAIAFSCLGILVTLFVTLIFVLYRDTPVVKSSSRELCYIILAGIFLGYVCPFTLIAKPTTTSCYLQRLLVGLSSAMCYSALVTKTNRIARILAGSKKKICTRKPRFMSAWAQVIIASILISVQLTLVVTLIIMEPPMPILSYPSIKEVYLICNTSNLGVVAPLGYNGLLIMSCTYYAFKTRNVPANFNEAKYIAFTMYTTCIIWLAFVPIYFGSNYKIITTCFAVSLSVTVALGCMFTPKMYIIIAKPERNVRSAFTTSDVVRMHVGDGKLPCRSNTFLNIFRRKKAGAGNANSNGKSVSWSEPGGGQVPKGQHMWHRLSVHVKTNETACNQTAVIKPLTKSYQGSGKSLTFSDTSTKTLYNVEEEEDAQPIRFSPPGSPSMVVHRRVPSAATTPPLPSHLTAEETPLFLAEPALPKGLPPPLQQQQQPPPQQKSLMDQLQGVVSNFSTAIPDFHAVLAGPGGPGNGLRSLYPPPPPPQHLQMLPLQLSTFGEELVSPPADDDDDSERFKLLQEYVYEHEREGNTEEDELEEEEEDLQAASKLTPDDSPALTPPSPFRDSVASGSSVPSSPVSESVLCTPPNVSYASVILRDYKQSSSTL
Another series concerns the target T3, CYP1A2 (Homo sapiens, UniProt P05177).
T3 sequence (P05177 whole entry): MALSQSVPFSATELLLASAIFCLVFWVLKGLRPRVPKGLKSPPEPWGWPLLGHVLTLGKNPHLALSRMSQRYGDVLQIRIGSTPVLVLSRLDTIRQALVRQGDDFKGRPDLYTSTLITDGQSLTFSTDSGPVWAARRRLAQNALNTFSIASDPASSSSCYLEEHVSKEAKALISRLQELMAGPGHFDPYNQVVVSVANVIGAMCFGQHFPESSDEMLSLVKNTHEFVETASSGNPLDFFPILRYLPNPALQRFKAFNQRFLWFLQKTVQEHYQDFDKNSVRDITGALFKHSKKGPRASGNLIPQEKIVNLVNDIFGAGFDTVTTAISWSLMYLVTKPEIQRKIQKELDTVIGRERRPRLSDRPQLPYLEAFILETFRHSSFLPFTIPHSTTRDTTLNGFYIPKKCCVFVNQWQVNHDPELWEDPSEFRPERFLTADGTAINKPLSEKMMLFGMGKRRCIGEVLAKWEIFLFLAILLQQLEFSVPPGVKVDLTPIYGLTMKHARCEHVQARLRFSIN
The experiment in a line: Inhibition of recombinant human CYP1A2 assessed as remaining activity at 10 uM preincubated for 5 mins followed by substrate and NADP addition measured after 20 mins by fluorescence assay relative to control. The format is ADME. As to conditions: read-out: Activity.

The next series concerns the target CYP2D6 (Homo sapiens, UniProt P10635). The experiment in a line: Inhibition of recombinant human CYP2D6 assessed as remaining activity at 10 uM preincubated for 5 mins followed by substrate and NADP addition measured after 20 mins by fluorescence assay relative to control. As to conditions: read-out: Activity. Format: ADME.
The next series concerns the target CYP3A4 (Homo sapiens, UniProt P08684). The series can be described thus: Inhibition of recombinant human CYP3A4 assessed as remaining activity at 10 uM preincubated for 5 mins followed by substrate and NADP addition measured after 20 mins by fluorescence assay relative to control. Format: ADME. As to conditions: read-out: Activity.
Series [4] can be described thus: Metabolic stability in human liver microsomes assessed as compound remaining at 1 uM after 30 mins by LC-MS/MS analysis in presence of NADPH. Format: ADME. As to conditions: read-out: Stability. In general terms: Liver microsomes are a subcellular fraction often used to study metabolism.
The next series deals with CYP2C19 (Homo sapiens, UniProt P33261). The series can be described thus: Inhibition of recombinant human CYP2C19 assessed as remaining activity at 10 uM preincubated for 5 mins followed by substrate and NADP addition measured after 20 mins by fluorescence assay relative to control. The format is ADME. As to conditions: read-out: Activity.
In the next series the target is CYP2C9 (Homo sapiens, UniProt P11712). The experiment in a line: Inhibition of recombinant human CYP2C9 assessed as remaining activity at 10 uM preincubated for 5 mins followed by substrate and NADP addition measured after 20 mins by fluorescence assay relative to control. The format is ADME. As to conditions: read-out: Activity.
The subject of series [5] is Rattus norvegicus. The experiment in a line: Analgesic activity in rat spinal nerve ligation model of neuropathic pain assessed as recovery from mechanical allodynia at 100 mg/kg, po administered on day 14 post ligation surgery measured after 3 hrs relative to control. The format is functional.
Series [6] has as its system Rattus norvegicus. The experiment in a line: Analgesic activity in rat spinal nerve ligation model of neuropathic pain assessed as recovery from cold allodynia at 100 mg/kg, po administered on day 14 post ligation surgery measured after 1 hr relative to control. The format is functional.
The target in series [7] is T1, Metabotropic glutamate receptor 5. The experiment in a line: Antagonist activity at human mGluR5 expressed in human embryonic kidney cells assessed as inhibition of L-glutamate-induced calcium release by calcium-5 reagent-based fluorescence assay. The format is functional, cell-based.

Calls of active or inactive are those of the source. The calls are words filed in the database; no cut-off is given here.

Chain of CYP3A4 (P08684 whole entry): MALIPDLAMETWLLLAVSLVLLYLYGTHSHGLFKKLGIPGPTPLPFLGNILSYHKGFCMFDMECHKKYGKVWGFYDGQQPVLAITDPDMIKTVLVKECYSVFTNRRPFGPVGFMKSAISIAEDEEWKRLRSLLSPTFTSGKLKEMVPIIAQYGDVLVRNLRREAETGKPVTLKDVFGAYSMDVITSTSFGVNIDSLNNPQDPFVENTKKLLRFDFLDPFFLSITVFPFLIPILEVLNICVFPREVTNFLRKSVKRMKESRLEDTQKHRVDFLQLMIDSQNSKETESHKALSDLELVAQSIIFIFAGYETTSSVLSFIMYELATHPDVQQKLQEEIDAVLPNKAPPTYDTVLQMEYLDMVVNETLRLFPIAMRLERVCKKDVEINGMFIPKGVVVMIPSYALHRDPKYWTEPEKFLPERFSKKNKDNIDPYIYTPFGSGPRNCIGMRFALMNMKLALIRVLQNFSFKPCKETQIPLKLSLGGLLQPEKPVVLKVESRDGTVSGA
Chain of CYP2C9 (P11712 whole entry): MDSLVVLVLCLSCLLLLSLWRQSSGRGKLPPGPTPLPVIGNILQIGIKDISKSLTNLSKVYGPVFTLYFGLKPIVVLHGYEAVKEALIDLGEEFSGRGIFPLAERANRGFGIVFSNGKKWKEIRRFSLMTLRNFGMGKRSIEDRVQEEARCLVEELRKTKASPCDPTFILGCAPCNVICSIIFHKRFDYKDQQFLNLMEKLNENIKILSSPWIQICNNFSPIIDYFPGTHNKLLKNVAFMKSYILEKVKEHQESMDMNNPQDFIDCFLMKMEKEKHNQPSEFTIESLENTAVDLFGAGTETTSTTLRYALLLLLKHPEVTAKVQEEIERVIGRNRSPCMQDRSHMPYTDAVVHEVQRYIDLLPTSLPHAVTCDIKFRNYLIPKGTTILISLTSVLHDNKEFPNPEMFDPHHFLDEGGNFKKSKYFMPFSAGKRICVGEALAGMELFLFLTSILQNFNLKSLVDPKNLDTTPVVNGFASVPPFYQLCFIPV
Chain of CYP2C19 (P33261 whole entry): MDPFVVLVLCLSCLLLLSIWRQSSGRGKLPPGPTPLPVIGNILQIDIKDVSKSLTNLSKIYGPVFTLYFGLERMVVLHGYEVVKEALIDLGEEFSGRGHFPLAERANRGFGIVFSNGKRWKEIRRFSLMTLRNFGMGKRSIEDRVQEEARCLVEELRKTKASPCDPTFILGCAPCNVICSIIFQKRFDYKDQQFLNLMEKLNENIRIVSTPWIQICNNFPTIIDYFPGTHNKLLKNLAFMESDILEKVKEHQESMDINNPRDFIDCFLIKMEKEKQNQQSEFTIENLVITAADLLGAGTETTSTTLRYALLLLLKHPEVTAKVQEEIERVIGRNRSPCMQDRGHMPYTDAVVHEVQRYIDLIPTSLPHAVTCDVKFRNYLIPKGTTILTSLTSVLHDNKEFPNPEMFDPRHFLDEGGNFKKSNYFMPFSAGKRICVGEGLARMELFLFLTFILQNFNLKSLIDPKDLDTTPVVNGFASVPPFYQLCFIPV

A word on the inhibition: it is the change of the read-out against control, counted positive when it falls. Consider `Cc1cc(C(=O)N2CCc3c(sc(NC(=O)c4ccccc4)c3C#N)C2)[nH]n1`, for which the figures for the inhibition in series [1] and in series [2] were 27.8% and 8.51%, respectively.
What is called IC50 is the concentration needed to halve the response being measured. `N#Cc1c(NCc2ccc(F)cc2)sc2c1CCN(C(=O)c1ccccc1)C2`: the results for the inhibition in series [1] and in series [2] were 26.4% and 77.8%, respectively. Further, in series [3], the 50% inhibitory concentration (IC50) was 1810 nM. Further, the activity at 20 min, 10 µM on CYP1A2 came to 52%; at CYP2D6, 36.4%; on CYP3A4, 24.2%; on CYP2C19 it was 3.81%; on CYP2C9, 5.48%. Also, in [4], the remaining at 0.5 h, 1 µM was determined as 33.4%.
On to `COc1ccc(C(=O)Nc2sc3c(c2C#N)CCN(C(=O)c2cc(C)n[nH]2)C3)cc1`, for which the inhibition in series [1] was 28.3%; in [2], -9.58%.
On to `N#Cc1c(NCc2ccc(F)cc2)sc2c1CCN(C(=O)c1ccn[nH]1)C2`, for which the inhibition amounted to 13.5% in series [1] and 91.4% in [2]. For the same molecule, in series [3], the IC50 is 2030 nM.
In the case of `Cc1cccc(C(=O)N2CCc3c(sc(NCc4ccccc4)c3C#N)C2)c1`, the inhibition came out at 8.8% in series [1] and 73.5% in series [2]. For the same molecule, the half-maximal inhibitory concentration (IC50) in [3] was determined as 3140 nM. Also, the activity at 20 min, 10 µM came to 42.6% at CYP1A2; 35.7% on CYP2D6; 9.36% at CYP3A4; 4.57% at CYP2C19; 4.33% at CYP2C9. In series [4], the remaining at 0.5 h, 1 µM was determined as 16.4%.
In the case of `N#Cc1c(NCc2ccccc2)sc2c1CCN(C(=O)c1ccccc1)C2`, the inhibition in series [1] was determined as 46%; in [2], 66.4%. Besides, the IC50 in [3] turned out to be 2820 nM.
On to `COc1cccc(CNc2sc3c(c2C#N)CCN(C(=O)c2cccc(F)c2)C3)c1`, for which the inhibition in series [1] amounted to 33.2%; in [2], 15.5%.
Taken in the same sequence, the figures for `CC(C)c1cc(C(=O)N2CCc3c(sc(NC(=O)c4ccc(F)cc4)c3C#N)C2)[nH]n1` were -2.3% and 28.5%.
On to `NCC1(CC(=O)O)CCCCC1` [GABAPENTIN], for which the values for the Activity in the series with Rattus norvegicus [5] and with Rattus norvegicus [6] were 80% and 40%, respectively.
On to `N#Cc1c(NCc2ccc(Cl)cc2)sc2c1CCN(C(=O)c1ccc(F)cc1)C2`, for which the figures for the inhibition in [1] and in [2] were 25.3% and 35.2%, respectively.
As for `N#Cc1c(NCc2cccc(F)c2)sc2c1CCN(C(=O)c1ccc(F)cc1)C2`, the inhibition was determined as 36.5% in series [1] and 82% in series [2]. In series [3], the half-inhibitory concentration (IC50) came to 2380 nM.
Consider `N#Cc1c(NCc2ccccc2)sc2c1CCN(C(=O)c1ccn[nH]1)C2`, for which the results for the inhibition in [1] and in series [2] were 4.48% and 94.9%, respectively. The half-inhibitory concentration (IC50) in series [3] turned out to be 1090 nM.
Turning to `Cc1cc(C(=O)N2CCc3c(sc(NCc4ccc(Cl)cc4)c3C#N)C2)[nH]n1`, the values for the inhibition in series [1] and in series [2] were 31.2% and 40.9%, respectively.
Taken in the same sequence, the figures for `N#Cc1ccc(CNc2sc3c(c2C#N)CCN(C(=O)c2ccccc2)C3)cc1` were 3.16% and 36.8%.
`COc1cccc(CNc2sc3c(c2C#N)CCN(C(=O)c2ccc(F)cc2)C3)c1`: the values for the inhibition in series [1] and in series [2] were 31.1% and 67.5%, respectively. Moreover, the half-maximal inhibitory concentration (IC50) in series [3] was 3090 nM. The activity at 20 min, 10 µM on CYP1A2 was determined as 78.5%; on CYP2D6 it was 35%; at CYP3A4, 12.5%; at CYP2C19 it was 7.99%; on CYP2C9, 6.46%. In addition, the remaining at 0.5 h, 1 µM in series [4] turned out to be 12.1%.
In the case of `COc1ccc(C(=O)Nc2sc3c(c2C#N)CCN(C(=O)c2cc(C(C)C)n[nH]2)C3)cc1`, the inhibition was 63.1% in [1] and -6.42% in [2]. The concentration for half-maximal inhibition (IC50) in [7] came out at 4830 nM.
Consider `Cc1ccc(C(=O)N2CCc3c(sc(NCc4ccc(F)cc4)c3C#N)C2)cc1`, for which the results for the inhibition in series [1] and in series [2] were 37.6% and 46.6%, respectively.
For the molecule `CC(C)c1cc(C(=O)N2CCc3c(sc(NC(=O)c4ccccc4)c3C#N)C2)[nH]n1`, the inhibition in series [1] amounted to 39.3%; in series [2], 14.6%.
Taken in the same sequence, the figures for `Cc1cc(C(=O)N2CCc3c(sc(NC(=O)c4ccc(F)cc4)c3C#N)C2)[nH]n1` were 13.7% and 31%.
Taken in the same sequence, the figures for `CC(C)c1cc(C(=O)N2CCc3c(sc(NCc4ccc(F)cc4)c3C#N)C2)[nH]n1` were 43.1% and 40.7%.
Turning to `Cc1ccc(C(=O)N2CCc3c(sc(NCc4cccc(F)c4)c3C#N)C2)cc1`, the values for the inhibition in series [1] and in series [2] were 54.8% and 43.9%, respectively.
For `CC(C)c1cc(C(=O)N2CCc3c(sc(NCc4ccccc4)c3C#N)C2)[nH]n1`, the inhibition worked out at 8.89% in [1] and 54.4% in series [2]. The IC50 in [3] was found to be 43200 nM.
Take `Cc1cc(C(=O)N2CCc3c(sc(NC(=O)c4ccc(Cl)cc4)c3C#N)C2)[nH]n1`: the inhibition in [1] was -2.15%; in [2], 42.2%.
`COc1ccc(C(=O)N2CCc3c(sc(NCc4cccc(F)c4)c3C#N)C2)cc1`: the inhibition in series [1] turned out to be 69%; in series [2], 42.8%. Moreover, the IC50 in series [7] turned out to be 4730 nM.
Regarding `COc1ccc(C(=O)N2CCc3c(sc(NCc4ccc(C#N)cc4)c3C#N)C2)cc1`, the inhibition was found to be 41.5% in [1] and 10.9% in series [2].
As to `N#Cc1c(NCc2cccc(F)c2)sc2c1CCN(C(=O)c1ccc(Cl)cc1)C2`, the figures for the inhibition in series [1] and in [2] were 60% and 41.2%, respectively.
For `CC(C)c1cc(C(=O)N2CCc3c(sc(NCc4ccc(Cl)cc4)c3C#N)C2)[nH]n1`, the inhibition in series [1] was found to be 24.8%; in series [2], 46.3%.
Turning to `CC(C)c1cc(C(=O)N2CCc3c(sc(NC(=O)c4ccc(Cl)cc4)c3C#N)C2)[nH]n1`, the inhibition in series [1] is -4.28%; in [2], 62.5%. The IC50 in [3] was 12200 nM.
Regarding `Cc1cc(C(=O)N2CCc3c(sc(NCc4ccc(F)cc4)c3C#N)C2)[nH]n1`, the inhibition worked out at 37.6% in series [1] and 84.2% in series [2]. The IC50 in series [3] came to 2450 nM.
Taken in the same sequence, the figures for `N#Cc1c(NCc2ccccc2)sc2c1CCN(C(=O)c1cccc(F)c1)C2` were 29.8%, 79% and 2900 nM.
Consider `N#Cc1c(NCc2ccccc2)sc2c1CCN(C(=O)c1cnccc1F)C2`, for which the values for the inhibition in [1] and in [2] were 16% and 90.1%, respectively. Further, the half-inhibitory concentration (IC50) in series [3] was 1240 nM.
For the molecule `N#Cc1c(NCc2ccc(F)cc2)sc2c1CCN(C(=O)c1ccc(F)cc1)C2`, the inhibition in series [1] was determined as 22.3%; in series [2], 73.1%.
Take `Cc1ccc(C(=O)N2CCc3c(sc(NCc4ccccc4)c3C#N)C2)cc1`: the figures for the inhibition in [1] and in [2] were 24.3% and 69.7%, respectively. Also, in series [3], the IC50 amounted to 4720 nM.
As to `N#Cc1c(NCc2ccccc2)sc2c1CCN(C(=O)c1ccc(F)cc1)C2`, the inhibition in series [1] was 26.1%; in series [2], 91.5%. For the same molecule, the half-maximal inhibitory concentration (IC50) in [3] is 600 nM. The Activity result in the series with Rattus norvegicus [5] was “inactive”. The Activity entry with Rattus norvegicus [6] is “Active”. The activity at 20 min, 10 µM at CYP1A2 came to 58.1%; on CYP2D6, 42%; at CYP3A4, 20%; at CYP2C19 it was 9.94%; at CYP2C9 it was 5.48%. Also, the remaining at 0.5 h, 1 µM in series [4] worked out at 49.4%.
Turning to `N#Cc1c(NCc2cccc(F)c2)sc2c1CCN(C(=O)c1ccccc1)C2`, the inhibition in series [1] was 44.2%; in series [2] it was 63.9%. The half-inhibitory concentration (IC50) in [3] was 5310 nM.
Consider `COc1ccc(C(=O)N2CCc3c(sc(NCc4ccc(F)cc4)c3C#N)C2)cc1`, for which the inhibition in series [1] was determined as 68%; in series [2], 47.7%. The half-inhibitory concentration (IC50) in series [7] was 1430 nM.

The values above are taken from ChEMBL document CHEMBL3421577, “Discovery and biological evaluation of tetrahydrothieno[2,3-c]pyridine derivatives as selective metabotropic glutamate receptor 1 antagonists for the potential treatment of neuropathic pain” (Eur J Med Chem, 2015).
